Test results reported in US10507212B2, “Method for use of homopiperazinium compounds in the treatment of cancer” (UNIVERSITÉ LAVAL, priority 2014, dated 2019).

Columns and labels:
[1] = test system: A549 lung adenocarcinoma; test: In vitro combination treatment with cisplatin or taxol, A549 (MTT); format: cell-based, human; details: A549, 3 days; increasing concentrations added to suboptimal doses of ASM-024
Experimental: The concomitant effect of ASM-024 and cisplatin or taxol on the proliferation of A549 lung adenocarcinoma and MCF7 breast cancer adenocarcinoma cells was assessed in vitro.
A549 cells (3.0×10^3cells/well) were first cultured with 10% FBS in F12K media and MCF7 cells (10×10^3 cells/well) with 10% FBS in EMEM media for 24 hours to allow cells to adhere to the plate at 37° C. in a humidified incubator with 5% CO2. The next day, the media was replaced in medium containing appropriate drug concentrations […] for an additional 72 hours. Cell viability was quantified using the MTT colorimetric assay (M2128, Sigma) at 575-690 nm.

[2] = test system: A549 human lung carcinoma cells; test: In vivo antitumor assay, A549 xenograft in Balb/c nude mice (Example 29); details: day 49; ASM-024 45 mg/kg s.c. daily day 14-38; taxol 10 mg/kg i.p. days 21, 28, 35; cisplatin 2.5 mg/kg i.p. days 28, 35
Experimental: For the in vivo antitumor assay, A549 human lung carcinoma cells (3.5×106) in 50% F12K medium (Matrigel) were implanted subcutaneously in the flank of Balb/c nude mice (nu/nu, Charles River) and allowed to grow for 14 days. ASM-024 was administered daily by subcutaneous delivery at the dose of 45 mg/kg from day 14 to day 38 post cell inoculation. Taxol was administrated intraperitoneally at the dose of 10 mg/kg on days 21, 28 and 35. Cisplatin was administrated intraperioneally at the dose of 2.5 mg/kg on days 28 and 35. From day 14 to day 49, tumor length and width were measured once or twice a week with a caliper and tumor volume calculated according to the formula Volume=(width2×length)/2.

Compound | inhibition of in vitro proliferation, combination [1] | A549 human carcinoma tumor growth (tumor volume) [2]
CC(=O)O[C@H]1C(=O)[C@@]2(C)[C@H]([C@H](OC(=O)c3ccccc3)[C@]3(O)C[C@H](OC(=O)[C@H](O)[C@@H](NC(=O)c4ccccc4)c4ccccc4)C(C)=C1C3(C)C)[C@]1(OC(C)=O)CO[C@@H]1C[C@@H]2O [taxol, Paclitaxel] | potentiated the inhibition of in vitro proliferation | decrease in A549 human carcinoma tumor growth
N.N.[Cl][Pt][Cl] [Cisplatin] | potentiated the inhibition of in vitro proliferation | decrease in A549 human carcinoma tumor growth
